Laboratory results: patent US20240174690A1, “ANNULATED 2-AMINO-3-CYANO THIOPHENES AND DERIVATIVES FOR THE TREATMENT OF CANCER” (BOEHRINGER INGELHEIM INTERNATIONAL GMBH, priority 2021, published 2024)
pIC50: −log10 of the molar value.

What was measured:
KRAS (WT)::SOS1 = KRAS (WT)::SOS1 (Homo sapiens (Human), UniProt P01116, C118S); experiment: KRAS::SOS1 AlphaScreen binding assay, KRAS WT
Source text: This assay can be used to examine the potency with which compounds according to the invention binding to (mutated) KRAS inhibit the protein-protein interaction between SOS1 and (mutated) KRAS e.g., KRAS WT, KRAS G12C, KRAS G12D, KRAS G12V, KRAS G13D. […] Low IC50 values in this assay setting are indicative of strong inhibition of protein-protein interaction between SOS1 and KRAS:
These assays measure the inhibitory effect of compounds on KRAS mutant protein-protein interactions using the Alpha Screen technology by Perkin Elmer.
The following (mutant) enzyme forms of KRAS and interacting proteins are used in these assays at the given concentrations: • KRAS (G12D) 1-169, N-terminal 6His-tag, C-terminal avi-tag (Xtal BioStructures, Inc.); final assay concentration 10 nM and SOS1 564-1049, N-terminal 229 GST-tag, TEV cleavage site (Viva Biotech Ltd); final assay concentration 5 nM; • KRAS (G12C) 1-169, N-terminal 6His-tag for purification, cleaved off, C-terminal avi-tag, biotinylated, mutations: C51S, C80L, C118S (in house); final assay concentration 7.5 nM and SOS1 564-1049, N-terminal 229 GST-tag, TEV cleavage site (Viva Biotech Ltd); final assay concentration 5 nM; • KRAS (G12V) 1-169, N-terminal 6His-tag for purification, cleaved off, C-terminal avi-tag, biotinylated, TEV cleavage site, mutation: C118S, GDP loaded (in house); final assay concentration 10 nM and SOS1 564-1049, N-terminal 229 GST-tag, TEV cleavage site (Viva Biotech Ltd); final assay concentration 10 nM; • KRAS (G13D) 1-169, N-terminal 6His-tag for purification, cleaved off, C-terminal avi-tag, biotinylated, TEV cleavage site, mutation: C118S, GDP loaded (in house); final assay concentration 10 nM and SOS1 564-1049, N-terminal 229 GST-tag, TEV cleavage site (Viva Biotech Ltd); final assay concentration 10 nM; • KRAS (WT) 1-169, N-terminal 6His-tag for purification, cleaved off, C-terminal avi-tag, biotinylated, TEV cleavage site, mutation: C118S, GDP loaded (in house); final assay concentration 10 nM and SOS1 564-1049, N-terminal 229 GST-tag, TEV cleavage site (Viva Biotech Ltd); final assay concentration 10 nM.
Test compounds dissolved in DMSO are dispensed onto assay plates (Proxiplate 384 PLUS, white, PerkinElmer; 6008289) using an Access Labcyte Workstation with the Labcyte Echo 55×. For the chosen highest assay concentration of 100 μM, 150 nL of compound solution are transferred from a 10 mM DMSO compound stock solution. A series of eleven fivefold dilutions per compound are transferred to the assay plate, compound dilutions are tested in duplicates. DMSO are added as backfill to a total volume of 150 nL.
The assays run on a fully automated robotic system in a darkened room below 100 Lux. To 150 nl of compound dilution 10 μl of a mix including KRAS mutant protein, SOS1 (final assay concentrations see above) and GDP nucleotide (Sigma G7127; final assay concentration 10 μM) in assay buffer (1×PBS, 0.1% BSA, 0.05% Tween 20) are added into columns 1-24.
After 30 minutes incubation time 5 μl of Alpha Screen bead mix in assay buffer are added into columns 1-23. Bead mix consists of AlphaLISA Glutathione Acceptor Beads (PerkinElmer, Cat No AL109) and AlphaScreen Streptavidin Donor Beads (PerkinElmer Cat No 6760002) in assay buffer at a final assay concentration of 10 μg/ml each.
Plates are kept at room temperature in a darkened incubator. After an additional 60 minutes incubation time the signal is measured in a PerkinElmer Envision HTS Multilabel Reader using the AlphaScreen specs from PerkinElmer.
Each plate contains up to 16 wells of a negative control depending on the dilution procedure (platewise or serial) (DMSO instead of test compound; with KRAS mutant::SOS1 GDP mix and bead mix; column 23) and 16 wells of a positive control (DMSO instead of test compound; with KRAS mutant::SOS1 GDP mix w/o bead mix; column 24).
As internal control known inhibitors of KRAS mutant::SOS1 interaction can be measured on each compound plate. […]

GP2D cells = experiment: GP2D proliferation assay (120 h) (colorectal cancer, G12D); assay type: cell-based
Experimental: GP2D Proliferation Assay (120 h) (Colorectal Cancer, G12D)
GP2D cells (ATCC No. CRL-5807) are dispensed into white 384-well plates, flat and white bottom (Perkin Elmer, 6007680) at a density of 500 cells per well in 40 μl DMEM (Sigma, D6429)+1×GlutaMAX (Gibco, 35050038)+10% FCS (fetal calf serum). […] Compounds (10 mM stock in DMSO) are added at logarithmic dose series using the HP Digital Dispenser D300 (Tecan), including DMSO controls and normalizing for added DMSO. For the TO time point measurement, untreated cells are analyzed at the time of compound addition. Plates are incubated for 120 h, and cell viability is measured using CellTiter-Glo luminescent cell viability reagent (Promega product code G7570). Viability (stated as percent of control) is defined as relative luminescence units RLU of each well divided by the RLU of cells in DMSO controls. IC50 values are determined from viability measurements by non-linear regression using a four parameter model.

MKN1 cells = experiment: MKN1 CTG proliferation assay (120 h) (gastric cancer, wt amplified); assay type: cell-based; conditions: Homo sapiens, MKN-1, assay 3, CTG 120 h, read-out: MKN1 (assay 3) IC50
Experimental: MKN1 CTG Proliferation Assay (120 h) (Gastric Cancer, Wt Amplified)
MKN1 cells (JCRB0252) are dispensed into white 384-well plates, flat and white bottom (Corning Costar, PNr.: 3570) at a density of 400 cells per well in 50 μL RPMI 1640 (PAN-Biotech, PNr.: P04-18047)+10% FCS (HyClone, PNr.: SH30084.03) (assay 1) or into white 384-well plates, flat and white bottom (Perkin Elmer, 6007680) at a density of 500 cells per well in 40 μl RPMI (Gibco, PNr.: 21875034)+10% FCS (HyClone, PNr.: SH30084.03) (assay 2) or into black 384-well plates, flat and clear bottom (Greiner, PNr. 781091) at a density of 200 cells per well in 60 μl RPMI-1640 (Gibco #A10491)+10% FCS (HyClone, PNr.: SH30084.03)+PenStrep (Gibco, PNr.15140-122) (assay 3). […] Compounds (10 mM stock in DMSO) are added at logarithmic dose series using the HP Digital Dispenser D300 (Tecan) (assay 1+2) or the ECHO acoustic liquid handler system (Beckman Coulter) (assay 3), including DMSO controls and normalizing for added DMSO. Plates are incubated for 120 h, and cell viability is measured using CellTiter-Glo luminescent cell viability reagent (Promega product code G7570). Viability (stated as percent of control) is defined as relative luminescence units RLU of each well divided by the RLU of cells in DMSO controls. IC50 values are determined from viability measurements by non-linear regression using a four-parameter model.

Chain of KRAS (WT)::SOS1 (P01116 other isoform, or with tags, fused parts or gaps C118S): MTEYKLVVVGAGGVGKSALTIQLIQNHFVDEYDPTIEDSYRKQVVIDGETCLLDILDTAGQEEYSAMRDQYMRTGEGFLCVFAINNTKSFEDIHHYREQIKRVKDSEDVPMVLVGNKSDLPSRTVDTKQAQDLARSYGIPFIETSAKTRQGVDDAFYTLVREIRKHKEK

Structure (SMILES) | pIC50 (KRAS (WT)::SOS1) | pIC50 (GP2D cells) | pIC50 (MKN1 cells)
C[C@H](Oc1cc(N2CCNC2=O)nc(-c2noc3c2CCC[C@@]32CCCc3sc(N)c(C#N)c32)n1)[C@@H]1CCCN1C [II-64] | 8.70 | 7.66 | –
CNC(=O)c1cn(-c2cc(O[C@@H](C)[C@@H]3CCCN3C)nc(-c3noc4c3CCC[C@@]43CCCc4sc(N)c(C#N)c43)n2)nn1 [II-122] | 8.00 | – | –
C[C@H](Oc1cc(-c2ccn3ncnc3c2)nc(-c2noc3c2CCC[C@@]32CCCc3sc(N)c(C#N)c32)n1)[C@@H]1CCCN1C [II-104] | 8.40 | 6.29 | –
C[C@H](Oc1cc(N2CCc3cccnc32)nc(-c2noc3c2CCC[C@@]32CCCc3sc(N)c(C#N)c32)n1)[C@@H]1CCCN1C [II-90] | 7.48 | – | –
C[C@H](Oc1cc(-c2cnsc2)nc(-c2noc3c2CCC[C@@]32CCCc3sc(N)c(C#N)c32)n1)[C@@H]1CCCN1C [II-111] | 8.40 | 6.35 | –
C[C@H](Oc1cc(N2C[C@H](C)NC3(CC3)C2)nc(-c2onc3c2CCC[C@@]32CCCc3sc(N)c(C#N)c32)n1)[C@@H]1CCCN1C [I-8] | – | 8.22 | 6.40
C[C@H](Oc1cc(N2CCCC3(COC3)C2)nc(-c2noc3c2CCC[C@@]32CCCc3sc(N)c(C#N)c32)n1)[C@@H]1CCCN1C [II-72] | – | – | 7.17
C[C@H](Oc1cc(-n2ccnc2)nc(-c2noc3c2CCC[C@@]32CCCc3sc(N)c(C#N)c32)n1)[C@@H]1CCCN1C [II-69] | 8.52 | 6.23 | –
C[C@H](O)Cn1ccc(-c2cc(O[C@@H](C)[C@@H]3CCCN3C)nc(-c3noc4c3CCC[C@@]43CCCc4sc(N)c(C#N)c43)n2)n1 [II-112] | – | 6.61 | –
C[C@H](Oc1cc(N2CCN(C)C2=O)nc(-c2noc3c2CCC[C@@]32CCCc3sc(N)c(C#N)c32)n1)[C@@H]1CCCN1C [II-75] | – | 6.95 | 6.97
C[C@H](Oc1cc(N2CCNC[C@]23CCOC3)nc(-c2noc3c2CCC[C@@]32CCCc3sc(N)c(C#N)c32)n1)[C@@H]1CCCN1C [II-50] | – | 8.52 | –
CO[C@@H]1C[C@@H]([C@H](C)Oc2cc(-c3ccn(C)n3)nc(-c3noc4c3CCC[C@@]43CCCc4sc(N)c(C#N)c43)n2)N(C)C1 [II-91] | – | 6.40 | 6.61
C[C@H](Oc1cc(N2CCNC3(CC3)C2)nc(-c2noc3c2CCC[C@@]32CCCc3sc(N)c(C#N)c32)n1)[C@@H]1CCCN1C [II-54] | 8.52 | 9.00 | –
C[C@H](Oc1cc(N2CCC[C@H](O)C2)nc(-c2noc3c2CCC[C@@]32CCCc3sc(N)c(C#N)c32)n1)[C@@H]1CCCN1C [II-57] | – | 6.79 | –
C[C@H](Oc1cc(N2Cc3cnn(C)c3C2)nc(-c2noc3c2CCC[C@@]32CCCc3sc(N)c(C#N)c32)n1)[C@@H]1CCCN1C [II-63] | – | – | 6.24
C[C@H](Oc1cc(-c2ccn(-c3ccccc3)n2)nc(-c2noc3c2CCC[C@@]32CCCc3sc(N)c(C#N)c32)n1)[C@@H]1CCCN1C [II-89] | – | – | 6.20
C[C@H](Oc1cc(-n2ccnc2)nc(-c2noc3c2CCC[C@@]32CCCc3sc(N)c(C#N)c32)n1)[C@@H]1C[C@@H](F)CN1C [II-120] | – | – | 6.63
C[C@H](Oc1cc(-c2ccncc2)nc(-c2noc3c2CCC[C@@]32CCCc3sc(N)c(C#N)c32)n1)[C@@H]1CCCN1C [II-78] | 8.15 | – | 6.27
C[C@H](Oc1cc(-n2cncn2)nc(-c2noc3c2CCC[C@@]32CCCc3sc(N)c(C#N)c32)n1)[C@@H]1CCCN1C [II-70] | – | – | 6.41
C[C@H](Oc1cc(-n2ccc(-c3ccccn3)n2)nc(-c2noc3c2CCC[C@@]32CCCc3sc(N)c(C#N)c32)n1)[C@@H]1CCCN1C [II-119] | 8.22 | – | 6.60
C[C@H](Oc1cc(-c2ccn(C[C@@H](C)O)n2)nc(-c2noc3c2CCC[C@@]32CCCc3sc(N)c(C#N)c32)n1)[C@@H]1CCCN1C [II-117] | – | 6.56 | –
C[C@H](Oc1cc(-c2ccccn2)nc(-c2noc3c2CCC[C@@]32CCCc3sc(N)c(C#N)c32)n1)[C@@H]1CCCN1C [II-85] | 8.30 | – | 6.58
C[C@H](Oc1cc(-c2ccc(N)nc2)nc(-c2noc3c2CCC[C@@]32CCCc3sc(N)c(C#N)c32)n1)[C@@H]1CCCN1C [II-101] | 8.10 | – | –
C[C@H](Oc1cc(-n2cc(-c3cccnc3)nn2)nc(-c2noc3c2CCC[C@@]32CCCc3sc(N)c(C#N)c32)n1)[C@@H]1CCCN1C [II-123] | 7.96 | – | –
C[C@H](Oc1cc(-c2cn[nH]c2)nc(-c2noc3c2CCC[C@@]32CCCc3sc(N)c(C#N)c32)n1)[C@@H]1CCCN1C [II-87] | – | – | 6.52
C[C@H](Oc1cc(-c2cccc(CO)c2)nc(-c2noc3c2CCC[C@@]32CCCc3sc(N)c(C#N)c32)n1)[C@@H]1CCCN1C [II-97] | – | – | 6.22
C[C@H](Oc1cc(-c2cncnc2)nc(-c2noc3c2CCC[C@@]32CCCc3sc(N)c(C#N)c32)n1)[C@@H]1CCCN1C [II-82] | 7.44 | – | 6.15
C[C@H](Oc1cc(N2C[C@H](C)N[C@@H](C)C2)nc(-c2noc3c2CCC[C@@]32CCCc3sc(N)c(C#N)c32)n1)[C@@H]1CCCN1C [II-56] | – | 7.89 | 6.18
COC(=O)c1ccc(-c2cc(O[C@@H](C)[C@@H]3CCCN3C)nc(-c3noc4c3CCC[C@@]43CCCc4sc(N)c(C#N)c43)n2)o1 [II-114] | – | – | 6.45
C[C@H](Oc1cc(-n2ccc(Br)n2)nc(-c2noc3c2CCC[C@@]32CCCc3sc(N)c(C#N)c32)n1)[C@@H]1CCCN1C [II-110] | 8.15 | – | –
